Measurements: US4075332A (priority 1976, dated 1978)
Like-named read-outs stand apart in the source and are kept apart here.

Experiments:
[1] = tested on: Corn earworm; experiment: Field control of corn earworm (Example 27); format: in vivo; conditions: Table XV; 1 lbs/acre; untreated check 45
Excerpt: Spring Gold sween corn was planted on March 21. Each treatment was made on a 48 ft. row and was replicated three times. Ratings represent the total counts from all three replicates. Except for insecticide treatment the plots were managed according to recommended farming practice for the area. Application of the experimental compositions at the 1 lb. active ingredient per acre were made and readings were made to determine the number of infested corn ears.

[2] = tested on: insects, mites and nematodes; experiment: Overall pesticidal activity in the greenhouse and laboratory tests (in words); format: in vivo
Protocol: In Examples 14-29 which follow, the new dithiophosphate compositions of the present invention were tested in the greenhouse and in the laboratory to determine their biological activity. Structurally related, known compounds, usually leading cmmercial compounds, were also tested side-by-side to determine the relative pesticidal effectiveness of the new compounds.
(§1) In the insecticidal and miticidal tests, the experimental compounds were tested as aqueous emulsions. These emulsions were prepared by dissolving the compound in acetone and dispersing it in distilled water with Triton X-100, an alkylaryl polyether alcohol derived by the reaction of i-octylphenol with ethylene oxide, to give spray emulsions containing the desired concentrations of the compound. These emulsions were then used in standard laboratory tests described below.

[3] = tested on: Mexican bean beetle; experiment: whole plant or invertebrate; conditions: Epilachna varivestis
[4] = tested on: Bean aphids; experiment: whole plant or invertebrate; conditions: Aphis fabae, 48 h; for mortality at 250 ppm: read-out: Mortality, % - Bean Aphids Contact
[5] = tested on: Spider mites; experiment: whole plant or invertebrate; conditions: Tetranychus urticae; for mortality at 10 ppm: read-out: Spider Mites Mortality,%; for mortality at 250 ppm: 48 h, read-out: Mortality, % - Spider Mites Contact
[6] = tested on: Corn rootworm larvae; experiment: whole plant or invertebrate; conditions: soil, 120 h
[7] = tested on: Southern army worm; conditions: in vivo
[8] = tested on: House fly; experiment: whole plant or invertebrate; conditions: Musca domestica, 48 h; for mortality at 20 ppm: read-out: House Fly Spray Mortality, % (at 20 ppm); for mortality at 250 ppm: read-out: Mortality, % - House Flies
[9] = tested on: bean rust fungus (Uromyces Phaseoli); experiment: Bean Rust systemic eradicant test; format: in vivo; conditions: Table III; 200 ppm
Protocol: Pinto bean plants were inoculated 24 hours prior to use as above and the soil in the pot was then treated with 20 ml. of an emulsion of the test chemical. The rest of the test and the evaluation were then carried out an above for Bean Powdery Mildew.

[10] = tested on: Corn rootworm larvae; conditions: in vivo, 120 h
[11] = tested on: bean rust fungus (Uromyces Phaseoli); experiment: Bean Rust eradicant test; format: in vivo; conditions: Table III; 200 ppm
Protocol: In these tests, the experimental compounds were tested in aqueous emulsions, prepared in the same manner as was previously described above with respect to the insecticidal and miticidal tests.
Pinto bean plants with fully expanded primary leaves were inoculated with spores of the bean rust fungus (Uromyces Phaseoli) and incubated for 24 hours. The test were then carried out as described above for Bean Powdery Mildew.

[12] = tested on: Sclerotium; experiment: Sclerotium soil fungicide test; format: in vivo; conditions: Table III; 100 lb/acre
Protocol: Sterilized soil was inoculated with Solerotium and placed into a 4-ounce "Dixie cup", and drenched with 20 ml. of an emulsion of the test chemical. The cup was then incubated for 2 days at 70° F. Thereafter, the amount of mycelial growth on the soil surface was rated and the control by the chemical estimated accordingly.

[13] = tested on: Root-knot nematode; conditions: in vivo
[14] = tested on: powdery mildew fungus (Erysiphe Polygoni); experiment: Bean Powdery Mildew eradicant test; format: in vivo; conditions: Table III; 200 ppm
[15] = Thermal stability of products (GC / nmr observation); format: physicochemical; conditions: 60° C
Excerpt: The corresponding primary alkyl derivatives such as the S'-n-propyl compound are stable under similar conditions.
The ethyl sulfinylmethyl product was unstable at room temperature.

[16] = biological target: bovine cholinesterase (Bos taurus, UniProt P23795); experiment: biochemical; format: biochemical
[17] = tested on: Lepidoptera; experiment: Activity against Lepidoptera / pest spectrum (in words); format: in vivo
[18] = in vivo; conditions: rat, po
[19] = tested on: Bean aphids; conditions: bean aphid, in vivo, 48 h
[20] = tested on: Mexican bean beetle; conditions: in vivo
[21] = tested on: Spider mites; conditions: in vivo, 48 h
[22] = tested on: Black Blow Flies; experiment: Animal systemic insecticide test in guinea pigs, black blow fly larvae; format: in vivo, black blow fly (host: guinea pig); conditions: Calliphoridae, in Cavia porcellus, 24 h, Table XI, read-out: Lowest Dosage (mg/kg) Causing Complete Kill of Larvae of Black Blow Flies
Protocol: (§2) The experimental compounds, formulated as 5% solutions in Tween 20, were administered orally and subcutaneously to guonea pigs which have been artificially infested with nymphs of the lone star tick at 48 hours before treatment, larvae of the secondary screw worm and of the black blow fly at 24 hours before treatment. Mortality was observed 24 hours after the treatment. For the details of the techniques, reference is made to the publications of R. O. Drummond in the Journal of Economic Entomology, particularly in Vol. 60, pages 733-737 in 1967.

[23] = tested on: Bean aphids; experiment: Aphid, Systemic; format: in vivo, bean aphid; conditions: Aphis fabae, 48 h, read-out: Mortality, % - Bean Aphids Systemic
Protocol: as §1
Aphid, Systemic: Nasturtium plants infested with the bean aphid were treated by applying 20 ml. of the formulated test chemical to the soil. The degree of aphid control was rated after 2 days.

[24] = tested on: Lone Star Ticks; experiment: Animal systemic insecticide test in guinea pigs, lone star tick nymphs; format: in vivo, lone star tick (host: guinea pig); conditions: Cavia porcellus, 24 h, Table XI, read-out: Lowest Dosage (mg/kg) Causing Complete Kill of Nymphs of Lone Star Ticks
Protocol: as §2

[25] = tested on: Spider mites; experiment: Mite, Systemic; format: in vivo, two-spotted mite; conditions: Tetranychus urticae, read-out: Mortality, % - Spider Mites Systemic
Protocol: as §1
Mite, Systemic: Bean plants infested with the two-spotted mites were treated by applying 20 ml. of the formulated test chemical to the soil.

[26] = tested on: Secondary Screw Worms; experiment: Animal systemic insecticide test in guinea pigs, secondary screw worm larvae; format: in vivo, secondary screw worm (host: guinea pig); conditions: Cavia porcellus, 24 h, Table XI, read-out: Lowest Dosage (mg/kg) Causing Complete Kill of Larvae of Secondary Screw Worms
Protocol: as §2

[27] = tested on: Southern army worm; experiment: whole plant or invertebrate; conditions: Spodoptera eridania; for mortality at 250 ppm: read-out: Mortality, % - Southern ArmyWorm
[28] = read-out: Mexican Bean Beetle Larvae Mortality, %
[29] = read-out: Corn Rootworm Larvae Mortality, % (at 2.5 ppm)
[30] = read-out: Mexican Bean Beetles Mortality,%
[31] = read-out: Bean Aphids Mortality,%
[32] = read-out: Corn Rootworm Mortality,%
[33] = read-out: Mortality, % - Mexican Bean Beetles
[34] = read-out: Mortality of Southern Armyworm, %

bovine cholinesterase, sequence (P23795-2 with tags, fused parts or gaps limits assumed): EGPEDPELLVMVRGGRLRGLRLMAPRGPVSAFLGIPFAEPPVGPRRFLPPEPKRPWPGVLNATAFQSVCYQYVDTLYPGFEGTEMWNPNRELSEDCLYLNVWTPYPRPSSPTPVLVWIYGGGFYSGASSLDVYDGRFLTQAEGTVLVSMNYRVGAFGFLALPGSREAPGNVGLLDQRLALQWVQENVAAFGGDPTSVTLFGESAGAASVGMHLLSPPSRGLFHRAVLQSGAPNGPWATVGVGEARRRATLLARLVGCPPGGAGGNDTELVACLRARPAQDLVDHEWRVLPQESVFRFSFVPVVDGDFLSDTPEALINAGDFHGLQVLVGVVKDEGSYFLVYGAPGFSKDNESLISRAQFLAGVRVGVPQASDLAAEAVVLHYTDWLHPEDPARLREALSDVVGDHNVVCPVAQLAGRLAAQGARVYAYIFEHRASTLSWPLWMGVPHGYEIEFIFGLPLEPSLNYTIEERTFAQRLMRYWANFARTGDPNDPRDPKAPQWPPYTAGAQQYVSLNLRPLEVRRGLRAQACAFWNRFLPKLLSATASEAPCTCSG

With `CCCSP(=O)(OCC)SCC(C)SC` (stereo not shown) [drawing 57] the “Number of Infested Corn Ears (150 Ears Sampled)” value (from here on “Number of Infested Corn Ears”) [1] was 4.

For `CCCSP(=O)(OCC)SCC(SC)C(C)(C)C` (stereo not shown) [Example 39, O-Ethyl S-1-Propyl S'-2-Methylthio-3,3-Dimethylbutyl Dithiophosphate], the “insecticidal activity at 50 ppm (in words)” value ([2]; 50 ppm) was “very little insecticidal activity”, the mortality at 50 ppm ([3]; read-out: Mortality Produced at 50 ppm, % - Mexican Bean Beetles) was 0% and the mortality at 50 ppm ([4]; read-out: Mortality Produced at 50 ppm, % - Bean Aphids) was 30%. The mortality at 50 ppm ([5]; read-out: Mortality Produced at 50 ppm, % - Spider Mites) was 100%, the mortality at 2.5 ppm ([6]; read-out: Corn Rootworm Mortality, % at 2.5 ppm) was 80% and the “Mortality Produced at 50 ppm, % - Southern Army Worm” value ([7]; southern armyworm) was 0%. It also gave a mortality at 50 ppm ([8]; read-out: Mortality Produced at 50 ppm, % - Houseflies) of 20%.

For `CCOP(=O)(SCC)SCC(C)SCC` (stereo not shown) [Example 29, O,S-Diethyl S'-2-Ethylthiopropyl Dithiophosphate], the “Control of Foliar Fungi, % - Bean Rust Systemic Eradicant” value [9] was 0%, the “Pest Control, % - Corn Rootworm (0.25 ppm)” value [10] was 20% and the “Control of Foliar Fungi, % - Bean Rust Eradicant” value [11] was 0%. The “Control of Sclerotium, %” value [12] was 0%, the “Pest Control, % - Nematode Control (25 lb/acre)” value [13] was 20% and the “Control of Foliar Fungi, % - Bean Mildew Eradicant” value [14] was 0%.

With `CCCSP(=O)(OCC)SCCSC` (stereo not shown) [drawing 55] the “Number of Infested Corn Ears” value [1] was 2.

For `CCCSP(=O)(OCC)SCSCC` (stereo not shown) [Example 11, O-Ethyl S-1-Propyl S'-Ethylthiomethyl Dithiophosphate], the mortality at 100 ppm [3, 28] was 100%, the “stability (nmr)” value [15] was “slowly decomposing” and the mortality at 2.5 ppm [6, 29] was 100%. For the same compound, the “Southern Army Worm Mortality, %” value ([7]; southern armyworm) was 100%, the “Nematodes Rate, Control after 1-4 weeks (at 25#/acre)” value [13] was 100 and the IC50 [16] was 2700 nM. For the same compound, the mortality at 20 ppm [8] was 100%.

In the case of `CCCSP(=O)(OCC)SCC(C)SC(C)=O` (stereo not shown) [Example 13, O:ETHYL S-1-PROPYL S-2-ACETYLTHIOPROPYL DITHIOPHOSPHATE], the “pesticidal spectrum / activity against Lepidoptera” value [17] is reported as “shows the broad pesticidal spectrum and the specific activity against Lepidoptera”.

In the case of `CCCSP(=O)(OCC)SCC(C)SCC` (stereo not shown) [Example 33, O-Ethyl S-1-Propyl S'-2-Ethylthiopropyl Dithiophosphate], the “Control of Foliar Fungi, % - Bean Rust Systemic Eradicant” value [9] is reported as 90%, the LD50 at 336 h [18] is reported as 214 mg/kg and the “Pest Control, % - Corn Rootworm (0.25 ppm)” value [10] is reported as 100%. The “Control of Foliar Fungi, % - Bean Rust Eradicant” value [11] was 80%, the mortality at 50 ppm [3, 30] was 70% and the mortality at 50 ppm [4, 31] was 100%. The “Control of Sclerotium, %” value [12] was 60%, the “Pest Control, % - Bean Aphids Contact” value [19] was 100% and the mortality at 10 ppm [5] was 100%. The mortality at 2.5 ppm [6, 32] was 100%, the “S.Armyworm Mortality,%” value [7] was 100% and the “Nematode Control,%” value [13] was 100%. The “Pest Control, % - Nematode Control (25 lb/acre)” value [13] was 100%, the “Pest Control, % - Mex. Bean Beetle” value [20] was 100% and the “Pest Control, % - Spider Mites Contact” value ([21]; spider mite) was 100%. The “Control of Foliar Fungi, % - Bean Mildew Eradicant” value [14] was 70%.

For `CCCCCCSC(C)CSP(=O)(OCC)SCCC` (stereo not shown) [Example 36, O-Ethyl S-1-Propyl S'-2-n-Hexylthiopropyl Dithiophosphate], the “pesticidal activity (in words)” value ([2]; summary statements) was “decreased level of activity”, the mortality at 50 ppm [3, 30] was 100% and the mortality at 50 ppm [4, 31] was 50%. The mortality at 10 ppm [5] was 90%, the mortality at 2.5 ppm [6, 32] was 0% and the “S.Armyworm Mortality,%” value [7] was 100%. For the same compound, the “Nematode Control,%” value [13] was 10%.

Work on `CCCSP(=O)(OCC)SCCSC` (stereo not shown) [Example 1, O-Ethyl S-1-Propyl S'-2-Methylthioethyl Dithiophosphate] yielded an LD50 at 336 h [18] of 46 mg/kg, a mortality at 250 ppm ([3]; read-out: Mortality, % - Mexican Bean Beetle) of 100% and a mortality at 250 ppm [3, 33] of 100%. For the same compound, the mortality at 250 ppm [4] was 100%, the “Mortality, % - Bean Aphids Contact” value [19] was 100% and the mortality at 250 ppm [5] was 100%. For the same compound, the “Mortality, % - Southern ArmyWorm” value [7] was 100%, the “Nematode Control,% at 25 lb/acre” value [13] was 90% and the minimal effective dose ([22]; oral) was 50 mg/kg. It also gave a minimal effective dose ([22]; sc, subcutaneous) of 50 mg/kg, a mortality at 250 ppm [23] of 95% and a mortality at 250 ppm [8] of 100%. For the same compound, the minimal effective dose ([24]; oral) was 50 mg/kg, the minimal effective dose ([24]; sc, subcutaneous) was 50 mg/kg and the “Mortality, % - Spider Mites Contact” value ([21]; two-spotted spider mite) was 100%. The mortality at 250 ppm [25] was 100%, the minimal effective dose ([26]; oral) was 50 mg/kg and the minimal effective dose ([26]; sc, subcutaneous) was 50 mg/kg. It also gave a mortality at 250 ppm [27] of 100%.

For `CCCSP(=O)(OCC)SCC[S+](C)[O-]` (stereo not shown) [drawing 56], the “Number of Infested Corn Ears” value [1] was 0.

`CCCSP(=O)(OCC)SCCSCC` (stereo not shown) [Example 30, O-Ethyl 1-Propyl S'-2-Ethylthioethyl Dithiophosphate] showed an LD50 at 336 h [18] of 318 mg/kg, a mortality at 50 ppm [3, 28] of 100% and a mortality at 250 ppm [3, 33] of 100%. It also gave a mortality at 250 ppm [4] of 100%, a mortality at 250 ppm [5] of 100% and a mortality at 2.5 ppm [6, 29] of 20%. The “Southern Army Worm Mortality, %” value ([7]; southern armyworm) was 100%, the “Nematodes Rate, Control after 1-4 weeks (at 25#/acre)” value [13] was 100 and the IC50 ([16]; read-out: Cholinesterase Inhibiting conc. LD50, Mole/Liter, 30 min) was 1100 nM. The mortality at 250 ppm [23] was 90%, the mortality at 20 ppm [8] was 100% and the mortality at 250 ppm [8] was 100%. The mortality at 250 ppm [25] was 100%, the mortality at 50 ppm [27, 34] was 80% and the mortality at 100 ppm [27, 34] was 100%. The mortality at 250 ppm [27] was 100%.
